{"source": "patent US7393827B2", "about": "“Pharmaceutical compositions and methods for restoring β-cell mass and function” (Diakine Therapeutics, Inc., priority 2004, dated 2008)", "key": {"[1]": {"tested_on": "non-obese diabetic (NOD) mice", "assay": "Reversal of established diabetes in NOD mice, blood glucose monitoring, 28-day osmotic mini-pump", "format": "in vivo, mouse", "settings": "LSF 27 mg/kg/day, Ex-4 18 nM/day", "protocol": "FIG. 4 depicts average levels of blood glucose in 4 NOD mice groups treated with saline (control), Ex-4 alone, LSF alone and LSF and Ex-4 combined, respectively.\nPre-diabetic non-obese diabetic (NOD) mice were monitored until two consecutive blood glucose readings within a week were above 250 mg/dL. This indicated the animals had already become diabetic. At this point a mini-osmotic pump was filled with one of the following and implanted subcutaneously: • Normal saline (control) • Ex-4 • LSF • Ex-4 and LSF\nBlood glucose levels in these mice were monitored, and a small dose of insulin was administered to the hyperglycemic mice to maintain euglycemia for the first few days. The pump was removed after 28 days, discontinuing treatment with the drug; however, the blood glucose levels were continually monitored for several more weeks. These mice were then sacrificed, and slide sections were prepared from their pancreases to evaluated histology and insulin staining (Example 5) and evidence for growth the new beta cells (Example 6).\nThese NOD were spontaneously diabetic between 20-25 weeks of age. The control groups include normal saline, LSF alone (27 mg/kg/day) and Ex-4 alone (18 nM/day). […] Four mice were in each group. Diabetes reversal was seen within 2-3 days after implantation of LSF/Ex-4 pumps, while hyperglycemia was controlled 10-12 days after LSF alone pump therapy."}, "[2]": {"tested_on": "murine β-cell lines", "settings": "previously published; cited from earlier work"}, "[3]": {"tested_on": "mouse islets", "assay": "MTT assay of cell metabolism and mitochondrial function in isolated islets", "format": "cell-based", "settings": "LSF 50 μM, Ex-4 20 nM", "protocol": "FIG. 3 depicts the effect of mitochondrial metabolism (as reflected by level of MTT metabolite) observed in isolated mouse islets after individual and combined treatment with LSF and Ex-4.\n(§1) For in vitro studies (Examples 1-3), freshly isolated BALB/c pancreatic islets were incubated at 37° C. with either LSF (50 μM) alone, Ex-4 (20 nM) alone, or with LSF/Ex-4 combined. After 3 days of culture, islets were treated with or without pro-inflammatory cytokines (10 ng/mL IL-1β, 20 ng/mL TNF-α, and 100 ng/mL IFN-γ) overnight. Insulin secretion was measured in low and high glucose using a standard elisa method for mouse insulin. Apoptotic islets were quantitatively assessed. MTT assay was used to evaluate cell metabolism and mitochondrial function.\nWe previously published, in murine β-cell lines and human islets that both ATP production and mitochondrial metabolism (MTT metabolite levels) were increased by LSF treatment."}, "[4]": {"tested_on": "NOD mouse pancreatic sections", "assay": "Brdu staining of NOD mouse pancreatic sections (cell proliferation in vivo)", "settings": "diabetic NOD mice treated 28 days via mini-pumps; Brdu 50 mg/kg I.P., tissue 24 hours later", "protocol": "FIG. 6 depicts results of Brdu staining of NOD mouse pancreatic sections treated with saline (control), Ex-4 alone, LSF alone and LSF and Ex-4 combined, respectively.\nEx-4/LSF-associated cell proliferation in vivo was evaluated. Diabetic NOD mice that were treated with Ex-4 alone, Ex-4 plus LSF, LSF alone and normal saline for 28 days via mini-pumps were injected with Brdu (50 mg/kg) I.P. 24 hours later, pancreatic tissues were collected and stained with an anti-Brdu antibody."}, "[5]": {"tested_on": "human islets", "settings": "previously published; cited from earlier work"}, "[6]": {"tested_on": "mouse islets exposed to pro-inflammatory cytokines (IL-1β, TNF-α, IFN-γ)", "assay": "Apoptosis of mouse islets exposed to pro-inflammatory cytokines", "format": "cell-based", "settings": "LSF 50 μM, Ex-4 20 nM; 10 ng/mL IL-1β, 20 ng/mL TNF-α, 100 ng/mL IFN-γ overnight", "protocol": "FIG. 2 depicts the effect in apoptosis reduction in isolated mouse islets after individual and combined treatment of LSF and Ex-4 in vitro.\nas §1\nCellular death (apoptosis) was quantified using an established method in mouse islets exposed to pro-inflammatory cytokines."}, "[7]": {"tested_on": "BALB/c pancreatic islets", "assay": "Insulin secretion of isolated islets in low and high glucose (EIA/ELISA)", "format": "cell-based, mouse", "settings": "3 days culture, LSF 50 μM, Ex-4 20 nM, 3 mM then 28 mM glucose, one-hour incubation", "protocol": "FIG. 1 depicts the amount of insulin in the supernate sample as determined by EIA after one-hour incubation with each of 3 mM and subsequent 28 mM glucose medium.\nas §1\n(See FIG. 1 in which “*” and “^” indicate P<0.005 compared to “none” treatment group)."}, "[8]": {"tested_on": "overt diabetic NOD (Non-Obese Diabetic) mice", "settings": "previously overt diabetic NOD mice; literature study; cited from earlier work"}}, "note": "“Also recorded” adds a separate entry of the source. Where no end group is shown, it is not given here.", "data": [{"molecule": "C[C@@H](O)CCCCn1c(=O)c2c(ncn2C)n(C)c1=O", "note": "[LSF, Lisofylline]", "values": [{"measurement": "time after pump implantation until diabetes reversal / hyperglycemia controlled", "setting": "[1]; diabetic NOD mice, S.C. mini-pump", "result": "10 to 12", "unit": "days"}, {"measurement": "diabetes reversal / control of hyperglycemia during pump therapy", "setting": "[1]; newly diagnosed diabetic NOD mice, S.C. osmotic mini-pump, 28 days", "result": "moderate ability to control blood glucose levels; also recorded: prevented worsening of hyperglycemia"}, {"measurement": "ATP production and mitochondrial metabolism (MTT metabolite levels)", "setting": "[2]", "result": "increased"}, {"measurement": "mitochondrial metabolism (MTT metabolite level)", "setting": "[3]", "result": "increase mitochondrial metabolism"}, {"measurement": "Brdu-positive cells in pancreatic tissue", "setting": "[4]", "result": "detected"}, {"measurement": "ATP production and mitochondrial metabolism (MTT metabolite levels)", "setting": "[5]", "result": "increased"}, {"measurement": "protection of islet cells from pro-inflammatory cytokines", "setting": "[6]", "result": "could protect isolated islet cells"}, {"measurement": "insulin release upon glucose stimulation", "setting": "[7]", "result": "increase insulin release"}]}, {"molecule": "glucagon-like peptide-1 (HAEGTFTSDVSSYLEGQAAKEFIAWLVKGR; ends and bridges not checked; UniProt P01275 98-127, looked up) [GLP-1, \"incretin synthesized in the small and large intestine by the L-type cells ... released in response to food ingestion\"]", "values": [{"measurement": "effect on hyperglycemia", "setting": "[8]", "result": "no effect"}]}]}
